Here are results for six molecules from patent US4986982A, “Cosmetic composition” (priority 1988, dated 1991).

A short description of one data set: physchem. To be noted: 100 mm phosphate buffer.
The nature of data set [1]: Delivery of pyroglutamic acid to the stratum corneum after topical application of tritiated esters to the arms of volunteers (radio-tracer technique). To be noted: [3H] pyroglutamic acid applied topically instead of ester. The format is in vivo, human. The source says: Accordingly, [^3 H] esters of pyroglutamic acid were each dissolved at 1% w/v in anhydrous ethanol or in an oil-in-water emulsion base. […] The [^3 H] pyroglutamic acid was separated from unchanged ester by chromotography on AG1X8 resin and the amount delivered to the skin expressed as nmoles per mg of stratum corneum protein.

Data set [2] in a line: Stability of esters of pyroglutamic acid in aqueous buffer (half-life of hydrolysis, intact ester by HPLC).
Protocol: (§1) (i) The chosen ester of pyroglutamic acid was dissolved in aqueous buffer of a selected pH value, to provide a 0.1% w/v solution of the ester;
(§2) (ii) Intact (unhydrolysed) ester was analysed by high performance liquid chromatography at regular time intervals.
(§3) (iii) The log of the amount of the ester remaining intact versus time was plotted to give a straight line response.
(§4) (iv) From this plot, the time required for half of the ester of pyroglutamic acid to be hydrolysed (half of the ester remaining intact), can be determined if necessary by extrapolation.
(§5) *Assay performed in 100 mM phosphate buffer at 30° C.

As usually defined, the half-life is how long it takes for the measured level to halve.

Protocol for physchem: as §1, §2, §3, §4, §5

Regarding `CCCCOC(=O)[C@@H]1CCC(=O)N1` [Pyroglutamic acid n-butyl ester, pyroglutamic acid n-butyl ester], the half-life in “physchem” (pH 4) was 625 days; in the data set “physchem” (pH 7), 3.33 days.
As to `CCCCCCOC(=O)[C@@H]1CCC(=O)N1` [Pyroglutamic acid n-hexyl ester, pyroglutamic acid n-hexyl ester], the figures for the half-life in the data set “physchem” (pH 4) and in the data set “physchem” (pH 7) were 750 days and 4 days, respectively.
Consider `CCOC(=O)C(C)OC(=O)C1CCC(=O)N1` (stereo not shown) [Ethyl-2-[pyroglutamoyloxy]-n-propionate, ethyl-2-[pyroglutamoyloxy]-n-propionate], for which the half-life in “physchem” (pH 4) is 70.8 days; in the data set “physchem” (pH 7), 0.375 days.
On to `O=C1CCC(C(=O)O)N1` (stereo not shown) [[^3 H] pyroglutamic acid, 2-pyrrolidone-5-carboxylic acid], for which, in data set [1], the “amount of tritiated free acid recovered from the stratum corneum” value was “negligible amount”.
Consider `CCCCCCCCOC(=O)[C@@H]1CCC(=O)N1` [Pyroglutamic acid n-octyl ester, pyroglutamic acid n-octyl ester], for which the half-life in “physchem” (pH 4) is 750 days; in “physchem” (pH 7), 4 days.
Regarding `CCOC(=O)[C@@H]1CCC(=O)N1` [Pyroglutamic acid ethyl ester, pyroglutamic acid ethyl ester], the half-life in data set [2] (100 mm phosphate buffer, pH 4) is 11000 h; in data set [2] (100 mm phosphate buffer, pH 7) it was 58 h; in data set [2] (aqueous buffer, pH 6.5), 288 h; in data set [2] (aqueous buffer, pH 6.8) it was 168 h; in data set [2] (aqueous buffer, pH 7), 57.6 h; in data set [2] (aqueous buffer, pH 7.4), 48 h. The molecule further had a half-life in data set [2] (aqueous buffer, pH 7.8) of 24 h.
